Source: ChEMBL document CHEMBL1201862, “PubChem BioAssay data set” (2004)
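48-hour exposure; five concentrations; linearly interpolated endpoints. The concentration for 50% growth inhibition is given as GI50.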 Active and inactive are the calls of the source. Rule as the data show it: active = GI50 up to about 1.1 µM and inactive = higher.

Tests used:
Assay in all cases: growth of human tumour cells (NCI), 48 h
SF-295 = test system: SF-295
OVCAR-5 = test system: OVCAR-5
HOP-92 = test system: HOP-92
OVCAR-3 = test system: OVCAR-3
SK-OV-3 = test system: SK-OV-3
A549 = test system: A549
NCI-H23 = test system: NCI-H23
DMS-273 = test system: DMS-273
U-251 = test system: U-251
OVCAR-8 = test system: OVCAR-8
OVCAR-4 = test system: OVCAR-4
LXFL 529 = test system: LXFL 529
SK-MEL-2 = test system: SK-MEL-2
SN12C = test system: SN12C
COLO 205 = test system: COLO 205
HOP-62 = test system: HOP-62
HCT-116 = test system: HCT-116
LOX IMVI = test system: LOX IMVI
NCI-H522 = test system: NCI-H522
MOLT-4 = test system: MOLT-4
NCI-H226 = test system: NCI-H226
HOP-18 = test system: HOP-18
EKVX = test system: EKVX
K562 = test system: K562
UACC-62 = test system: UACC-62
SNB-19 = test system: SNB-19
UO-31 = test system: UO-31
RPMI-8226 = test system: RPMI-8226
SNB-78 = test system: SNB-78
RXF 631 = test system: RXF 631
ACHN = test system: ACHN
M19-MEL = test system: M19-MEL
HCT-15 = test system: HCT-15
XF498 = test system: XF498
SW-620 = test system: SW-620
TK-10 = test system: TK-10
786-0 = test system: 786-0
KM-20L2 = test system: KM-20L2
HCC 2998 = test system: HCC 2998
M14 = test system: M14
SK-MEL-28 = test system: SK-MEL-28
HT-29 = test system: HT-29
SF-268 = test system: SF-268
CAKI-1 = test system: CAKI-1
Malme-3M = test system: Malme-3M
HL-60 = test system: HL-60
NCI-H460 = test system: NCI-H460
SF-539 = test system: SF-539
CCRF-CEM = test system: CCRF-CEM
DMS-114 = test system: DMS-114
A498 = test system: A498
KM12 = test system: KM12
IGROV-1 = test system: IGROV-1
DLD-1 = test system: DLD-1
UACC-257 = test system: UACC-257
SK-MEL-5 = test system: SK-MEL-5
SNB-75 = test system: SNB-75
RXF 393 = test system: RXF 393

## CNC(=O)OCc1c2ccncc2c(C)c2c1[nH]c1ccc(OC)cc12
SF-295
  GI50: 0.352 µM (active)
OVCAR-5
  GI50: 0.247 µM (active)
HOP-92
  GI50: 0.187 µM (active)
OVCAR-3
  GI50: 0.311 µM (active)
SK-OV-3
  GI50: 0.212 µM (active)
A549
  GI50: 0.39 µM (active)
NCI-H23
  GI50: 0.115 µM (active)
DMS-273
  GI50: 0.379 µM (active)
U-251
  GI50: 0.182 µM (active)
OVCAR-8
  GI50: 0.209 µM (active)
OVCAR-4
  GI50: 0.256 µM (active)
LXFL 529
  GI50: 0.115 µM (active)
SK-MEL-2
  GI50: 0.181 µM (active)
SN12C
  GI50: 0.678 µM (active)
COLO 205
  GI50: 0.536 µM (active)
HOP-62
  GI50: 0.156 µM (active)
HCT-116
  GI50: 0.156 µM (active)
LOX IMVI
  GI50: 0.256 µM (active)
NCI-H522
  GI50: 0.0805 µM (active)
MOLT-4
  GI50: 0.0404 µM (active)
NCI-H226
  GI50: 0.179 µM (active)
HOP-18
  GI50: 0.254 µM (active)
EKVX
  GI50: 2.21 µM (inactive)
K562
  GI50: 0.322 µM (active)
UACC-62
  GI50: 0.16 µM (active)
SNB-19
  GI50: 0.267 µM (active)
UO-31
  GI50: 0.148 µM (active)
RPMI-8226
  GI50: 0.183 µM (active)
SNB-78
  GI50: 0.119 µM (active)
RXF 631
  GI50: 0.675 µM (active)
ACHN
  GI50: 0.193 µM (active)
M19-MEL
  GI50: 0.344 µM (active)
HCT-15
  GI50: 0.495 µM
XF498
  GI50: 1.03 µM (active)
SW-620
  GI50: 0.164 µM (active)
TK-10
  GI50: 0.953 µM (active)
786-0
  GI50: 0.156 µM (active)
KM-20L2
  GI50: 0.227 µM (active)
HCC 2998
  GI50: 0.29 µM (active)
M14
  GI50: 0.57 µM (active)
SK-MEL-28
  GI50: 0.605 µM (active)
HT-29
  GI50: 0.33 µM (active)
SF-268
  GI50: 0.161 µM (active)
CAKI-1
  GI50: 0.968 µM (active)
Malme-3M
  GI50: 0.353 µM (active)
HL-60
  GI50: 0.204 µM (active)
NCI-H460
  GI50: 0.19 µM (active)
SF-539
  GI50: 0.154 µM (active)
CCRF-CEM
  GI50: 0.176 µM (active)
DMS-114
  GI50: 0.226 µM (active)
A498
  GI50: 0.176 µM (active)
KM12
  GI50: 0.573 µM (active)
IGROV-1
  GI50: 0.284 µM (active)

## NS(=O)(=O)c1ccc(NC(=O)c2cccc3c(Nc4ccc(S(N)(=O)=O)cc4)c4ccccc4nc23)cc1
SF-295
  GI50: 31.6 µM (inactive)
OVCAR-5
  GI50: > 100 µM (inactive)
HOP-92
  GI50: 33.8 µM (inactive)
DLD-1
  GI50: 24.7 µM (inactive)
OVCAR-3
  GI50: 13.6 µM (inactive)
SK-OV-3
  GI50: > 100 µM (inactive)
A549
  GI50: > 100 µM (inactive)
NCI-H23
  GI50: 87.5 µM (inactive)
DMS-273
  GI50: 1.85 µM (inactive)
UACC-257
  GI50: 32.9 µM (inactive)
U-251
  GI50: 21.2 µM (inactive)
OVCAR-8
  GI50: 48.5 µM (inactive)
SK-MEL-5
  GI50: 41.2 µM (inactive)
OVCAR-4
  GI50: 22.4 µM (inactive)
LXFL 529
  GI50: 12.2 µM (inactive)
SK-MEL-2
  GI50: 20 µM (inactive)
SN12C
  GI50: 31.8 µM (inactive)
COLO 205
  GI50: 54.5 µM (inactive)
HOP-62
  GI50: > 100 µM (inactive)
HCT-116
  GI50: 46.8 µM (inactive)
LOX IMVI
  GI50: 5.55 µM (inactive)
NCI-H522
  GI50: 10.8 µM (inactive)
MOLT-4
  GI50: 4.5 µM (inactive)
SNB-75
  GI50: 14.3 µM (inactive)
HOP-18
  GI50: > 100 µM (inactive)
EKVX
  GI50: > 100 µM (inactive)
K562
  GI50: 11.3 µM (inactive)
UACC-62
  GI50: 31.8 µM (inactive)
SNB-19
  GI50: 30.8 µM (inactive)
UO-31
  GI50: 93.5 µM (inactive)
RPMI-8226
  GI50: 9.25 µM (inactive)
SNB-78
  GI50: 29.8 µM (inactive)
RXF 631
  GI50: 3.48 µM (inactive)
ACHN
  GI50: > 100 µM (inactive)
M19-MEL
  GI50: 21.4 µM (inactive)
HCT-15
  GI50: 37.3 µM
XF498
  GI50: 27.2 µM (inactive)
SW-620
  GI50: 29.4 µM (inactive)
TK-10
  GI50: > 100 µM (inactive)
786-0
  GI50: 25.3 µM (inactive)
KM-20L2
  GI50: 67.1 µM (inactive)
M14
  GI50: > 100 µM (inactive)
SK-MEL-28
  GI50: > 100 µM (inactive)
HT-29
  GI50: 14.6 µM (inactive)
SF-268
  GI50: 15.5 µM (inactive)
RXF 393
  GI50: 52.5 µM (inactive)
CAKI-1
  GI50: 38.2 µM (inactive)
Malme-3M
  GI50: 43.9 µM (inactive)
HL-60
  GI50: 28.6 µM (inactive)
NCI-H460
  GI50: > 100 µM (inactive)
SF-539
  GI50: 20.8 µM (inactive)
CCRF-CEM
  GI50: 6.18 µM (inactive)
DMS-114
  GI50: 39.3 µM (inactive)
A498
  GI50: > 100 µM (inactive)
KM12
  GI50: 4.47 µM (inactive)
IGROV-1
  GI50: > 100 µM (inactive)
